Read-outs that look alike come from different tables or passages of the source.
Columns and labels:
BRD2-BD1 = BRD2-BD1 (Homo sapiens (Human), UniProt P25440); test: competitive TR-FRET assay, BET-BD with acetylated peptide ligand; type: binding; details: read-out: EC50 (μM) BRD2(1)
Procedure: (§1) Inhibitor potency was determined using a competitive TR-FRET assay as detailed herein, measuring interaction of the respective BET-BD with an acetylated peptide ligand (Table 2).

BRD2-BD2 = BRD2-BD2 (Homo sapiens (Human), UniProt P25440); test: as above; type: binding; details: read-out: EC50 (μM) BRD2(2)
Procedure: as §1

BRDT = BRDT (Homo sapiens, UniProt Q58F21); test: as above; type: binding
Procedure: as §1

HDMB03 cells = test: cell viability, CellTiter-Glo; type: cell-based, human; details: read-out: EC50 (μM) HDMB03
Procedure: Human G3 medulloblastoma or mouse SHH medulloblastoma cells were grown as neurospheres in supplemented neurobasal medium, as previously described (Kawauchi et al., 2012.)
(§2) After 7 days of treatment, an equal volume of CellTiter-Glo reagent (G7572, Promega) was added and the luminescence signal was measured using an automated Envision plate reader (Perkin-Elmer). Luminescence data were normalized by log10 transformation prior to calculating the percent inhibition using the following equation:
(§3) 100*(negative control mean −compound value)/(negative control mean −positive control mean).
High-throughput assay data were analyzed using Robust Interpretation of Screening Experiments (RISE) application written in Pipeline Pilot (Accelrys, v. 8.5) and the R program (R Development Core Team).
Dose-response curves were calculated by regressing the median percent inhibition obtained over triplicate experiments to log 10-transformed concentrations. Non-linear regression was then performed using the R drc package with the four parameter log-logistic function (LL2.4) (Ritz and Streibig, 2009). Curves were fit under three different constraints: (1) all parameters free, (2) high response fixed to 100, (3) low response fixed to 0; and the best fit from these three nested models was selected using the anova.drc function.

Loucy = test: anti-proliferative activity; type: cell-based; details: Table 5
Procedure: as §2, §3

NALM-16 = test: anti-proliferative activity; type: cell-based; details: Table 5
Procedure: as §2, §3

SEM cells = test: anti-proliferative activity; type: cell-based; details: Table 5
Procedure: as §2, §3

[1] = test system: c-Myc expression in HDMB03 cells; test: c-Myc expression inhibition, high content microscopy (HCM); type: cell-based, human; details: read-out: EC50 (μM) Myc-inhibition
Procedure: 3000 human G3 medulloblastoma or 2000 mouse SHH medulloblastoma cells per well were plated into 384-well plates (6007710, Perkin Elmer) in 30 μL of supplemented neurobasal medium using a Wellmate automated dispenser (Thermo Matrix). After 24 hours, 125 nl of compound was transferred via pin tool, resulting in a final drug concentration from 2 nM to 40 μM. 72 hours after adding the drug, the plates were fixed with 4% formaldehyde for 20 min. After fixation the cells were then washed 3 times with 75 μl of PBS. The cells were then permeabilized with 0.1% Triton-X 100 for 15 minutes at 25° C. and blocked using 1% BSA in PBS for 1 hour at 25° C. The primary antibody against c-Myc Ab (#9402, Cell Signaling) at a 1:400 dilution was diluted in 1% BSA in PBS. This mixture was added to each well before incubation overnight at 4° C. Each well was then washed 3 times with PBS using a Biotek ELX405 Select plate washer, and incubated for 1 hour at 25° C. with a solution containing 1/400 goat α-rabbit-Alexa-488 (4412S, Cell Signaling) and 1 μM Hoechst 33342 to detect nuclear material (H3570, Molecular Probes). Two images were captured of each well at 10× using a GE Healthcare InCell 6000 at 405 nM to detect nuclear staining and 488 nM to detect c-Myc. All data were analyzed using the multi-target analysis algorithm of the GE InCell Analyzer Workstation software. The number of nuclear objects in each well, as well as all nuclear measurements, was determined through nuclear masks over the Hoechst staining. C-Myc staining was then measured using top-hat segmentation in the entire cell.

BRD2(1) = BRD2(1) (Homo sapiens (Human), UniProt P25440); test: BROMOscan KD determination; type: binding; details: Table 10
Excerpt: (§4) DiscoverX® can screen compounds against all ˜42 bromodomains (a service called BROMOscan) and perform follow-up KD determination. This service is considered the industrial standard for bromodomain inhibitor comparisons. […] Dots are symbolic of inhibition of the compound at this concentration; the larger the size of the dot, the greater the activity of the compound. […] Though these compounds are selective for the BET family, the selectivity within the BET family is poor. The results of a competitive binding experiment between compounds 19 (left), 41 (center), and 56 (right) (at a single concentration, 1 μM) and a control for each of the bromodomains are shown in FIG. 5.

BRD2(2) = BRD2(2) (Homo sapiens (Human), UniProt P25440); test: BROMOscan KD determination; type: binding; details: BROMOscan, Table 10
Excerpt: as §4

BRDT(1) = BRDT(1) (Homo sapiens (Human), UniProt Q58F21); test: BROMOscan KD determination; type: binding; details: Table 10
Excerpt: as §4

BRDT(2) = BRDT(2) (Homo sapiens (Human), UniProt Q58F21); test: BROMOscan KD determination; type: binding; details: BROMOscan, Table 10
Excerpt: as §4

BRD3(1) = BRD3(1) (Homo sapiens (Human), UniProt Q15059); test: BROMOscan KD determination; type: binding; details: Table 10
Excerpt: (§5) DiscoverX® can screen compounds against all ˜42 bromodomains (a service called BROMOscan) and perform follow-up KD determination. This service is considered the industrial standard for bromodomain inhibitor comparisons.

BRD3(2) = BRD3(2) (Homo sapiens (Human), UniProt Q15059); test: BROMOscan KD determination; type: binding; details: BROMOscan, Table 10
Excerpt: as §5

all ~42 bromodomains = test: BROMOscan competitive binding experiment at a single concentration; details: 1 μM, FIG. 4
Excerpt: as §4

Chain of BRD2-BD1 (P25440 74-180): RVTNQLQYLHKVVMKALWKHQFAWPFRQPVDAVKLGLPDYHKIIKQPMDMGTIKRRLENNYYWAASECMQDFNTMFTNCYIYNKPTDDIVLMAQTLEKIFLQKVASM
Chain of BRD2-BD2 (P25440 344-453): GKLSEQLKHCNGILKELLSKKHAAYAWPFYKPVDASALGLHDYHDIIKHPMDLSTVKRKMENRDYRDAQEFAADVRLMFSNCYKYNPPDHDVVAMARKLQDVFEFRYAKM
Chain of BRD2(1) (P25440 74-180): as the sequence (P25440 74-180) above
Chain of BRD3(1) (Q15059 34-140): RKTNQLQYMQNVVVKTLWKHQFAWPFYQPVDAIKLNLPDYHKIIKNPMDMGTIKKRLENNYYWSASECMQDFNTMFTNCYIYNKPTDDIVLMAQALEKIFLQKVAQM
Chain of BRD2(2) (P25440 344-453): as the sequence (P25440 344-453) above
Chain of BRD3(2) (Q15059 306-415): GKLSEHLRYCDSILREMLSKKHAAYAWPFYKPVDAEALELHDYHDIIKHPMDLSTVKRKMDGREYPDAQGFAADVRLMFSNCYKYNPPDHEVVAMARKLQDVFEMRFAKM

CC(=O)N1c2ccc(-c3ccc(C(=O)O)cc3)cc2[C@H](Nc2ccc(Cl)cc2)C[C@@H]1C [GSK-726, IBET-726, reference compound]
EC50 (BRD2-BD1; Table 4): 1 µM
EC50 (BRD2-BD1; Table 6): 1.3 µM
EC50 (BRD2-BD1; Table 8): 1.3 µM
EC50 (BRD2-BD2; Table 4): 0.057 µM
EC50 (BRD2-BD2; Table 6): 0.19 µM
EC50 (BRD2-BD2; Table 8): 0.19 µM
EC50 (BRDT; Table 4, read-out: BRDT EC50): 5.3 µM
EC50 (BRDT; Table 6, head names no target, BRDT by comparison with Table 4, read-out: EC50): 5.5 µM
EC50 (BRDT; Table 8, head names no target, BRDT by comparison with Table 4, read-out: EC50): 5.5 µM
EC50 (HDMB03 cells; Table 5): 5.77 µM
EC50 (HDMB03 cells; Table 7): 0.95 µM
EC50 (HDMB03 cells; Table 9, cancer cell proliferation inhibition): 0.95 µM
EC50 (Loucy): 0.33 µM
EC50 (NALM-16): 0.23 µM
EC50 (SEM cells): 0.02 µM
EC50 ([1]; Table 5): 0.17 µM
EC50 ([1]; Table 7): 1.5 µM
EC50 ([1]; Table 9, c-Myc expression inhibition in HDMB03 cells): 1.5 µM
Kd (BRD2(1)): 0.0047 µM
Kd (BRD2(2)): 0.0002 µM
Kd (BRDT(1)): 0.0045 µM
Kd (BRDT(2)): 0.00089 µM
Kd (BRD3(1)): 0.0031 µM
Kd (BRD3(2)): 0.0002 µM
activity across bromodomain families (all ~42 bromodomains): activity only versus the BET family
